Source: patent US6100280A, “Narcotic antagonist” (Pola Chemical Industries, Inc., priority 1995, dated 2000)

The compounds below were run against T1, (cocaine derivative [^3 H]WIN35,428 binding, striatum) (Rattus norvegicus, UniProt P23977) (assay: In vitro binding inhibition assay against a cocaine derivative ([^3 H]WIN35,428), striatum crude membrane). Details: [^3 H]WIN35,428 0.5 nM, 2 hours on ice (0-4° C.), pH 7.4, Hill plotting, read-out: 50% Inhibition concentration.
T1 construct: from tissue; host or cells: striatum of male Wistar rats, crude membranes
T1 sequence (P23977 whole entry): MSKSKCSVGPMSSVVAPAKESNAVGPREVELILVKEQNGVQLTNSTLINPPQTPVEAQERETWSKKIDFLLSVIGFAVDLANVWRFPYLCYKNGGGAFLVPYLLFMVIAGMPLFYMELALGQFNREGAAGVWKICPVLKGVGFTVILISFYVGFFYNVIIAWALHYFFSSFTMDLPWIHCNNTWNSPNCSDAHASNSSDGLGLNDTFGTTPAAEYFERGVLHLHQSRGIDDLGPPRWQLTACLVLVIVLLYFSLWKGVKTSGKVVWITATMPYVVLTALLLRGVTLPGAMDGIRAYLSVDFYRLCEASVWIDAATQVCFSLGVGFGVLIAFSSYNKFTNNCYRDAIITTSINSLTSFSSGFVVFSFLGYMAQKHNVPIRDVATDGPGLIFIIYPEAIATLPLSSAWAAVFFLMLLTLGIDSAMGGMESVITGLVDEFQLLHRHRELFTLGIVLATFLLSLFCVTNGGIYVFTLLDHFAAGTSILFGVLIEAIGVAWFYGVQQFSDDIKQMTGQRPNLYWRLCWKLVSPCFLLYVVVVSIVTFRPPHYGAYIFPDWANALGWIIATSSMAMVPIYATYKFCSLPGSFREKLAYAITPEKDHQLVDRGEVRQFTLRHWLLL
Design: species or system male Wistar rats
Description: (§1) Male Wistar rats were decapitated. From each rat, striatum was immediately removed, and its wet weight was measured. The tissue of striatum was homogenized using a polytron together with a 10-fold amount of 50 mM Tris-HCl buffer (pH 7.4) while being cooled on ice. The homogenate was centrifugally separated (38,700 G, 20 minutes, 4° C.), and the resulting pellet was suspended in a mixture of a 40-fold amount (based on the original tissue weight) of 50 mM Tris-HCl and 100 mM NaCl buffer (pH 7.4).
(§2) The contents were allowed to react for 2 hours on ice (0-4° C.). Reaction was terminated by passing the contents through a glass filter (GF/B, product of Whatman) which had been immersed in 0.1% BSA solution for at least 40 minutes in advance while aspiration was carried out using a cell harvester, followed by washing three times with 5 ml of 50 mM Tris HCl buffer (pH 7.4). The filter and 10 ml of aquazol 2 (product of NEN) were placed in a vial and allowed to stand overnight. Radioactivity was measured using a liquid scintillation counter. […] Specific binding amounts were determined by subtracting the nonspecific binding amounts from the total binding amounts. Fifty(50)% inhibition concentrations were calculated using Hill plotting.
Compound `OC(CNc1ccccc1)CN1CCN(CCCC(c2ccc(F)cc2)c2ccc(F)cc2)CC1` (single isomer, unassigned) [Compound 15, (--)-1-[4,4-bis(4-fluorophenyl)butyl]-4-(2-hydroxy-3-phenylaminopropyl)-piperazine.2HCl] has an IC50 of 37.6 nM. `OC(CNc1ccccc1)CN1CCN(CCCC(c2ccc(F)cc2)c2ccc(F)cc2)CC1` (single isomer, unassigned; (+)) [Compound 16, (+)-1-[4,4-bis(4-fluorophenyl)butyl)-4-(2-hydroxy-3-phenylaminopropyl)-piperazine.2HCl] showed an IC50 of 52.6 nM. With `OC(CNc1ccccc1)CN1CCN(CCCC(c2ccc(F)cc2)c2ccc(F)cc2)CC1` (stereo not shown) [Compound 1, 1-[4,4-bis(4-fluorophenyl)-butyl]-4-(2-hydroxy-3-phenylaminopropyl)piperazine.2HCl] the IC50 was 44.8 nM. With `OC(CNc1ccccc1)CN1CCN(C(c2ccc(F)cc2)c2ccc(F)cc2)CC1` (stereo not shown) [Compound 2, 1-[bis(4-fluorophenyl)-methyl]-4-[2-hydroxy-3-phenylaminopropyl)-piperazine.2HCl] the IC50 was 51.6 nM. Work on `OC(CNCc1ccccc1)CN1CCN(CCCC(c2ccc(F)cc2)c2ccc(F)cc2)CC1` (stereo not shown) [Compound 3, 1-[4,4-bis(4-fluorophenyl)-butyl]-4-(2-hydroxy-3-benzylaminopropyl)-piperazine.2HCl] yielded an IC50 of 31.7 nM. In the case of `CC(=O)N(CC(O)CN1CCN(CCCC(c2ccc(F)cc2)c2ccc(F)cc2)CC1)c1ccccc1` (stereo not shown) [Compound 4], the IC50 is reported as 49.5 nM. Work on `CN(CC(O)CN1CCN(CCCC(c2ccc(F)cc2)c2ccc(F)cc2)CC1)c1ccccc1` (stereo not shown) [Compound 6, 1-[4,4-bis(4-fluorophenyl)-butyl]-4-[2-hydroxy-3-(N-methyl-N-phenylamino)-propyl]piperazine.2C4H4O4] yielded an IC50 of 34.9 nM. `CC(=O)OC(CNc1ccccc1)CN1CCN(CCCC(c2ccc(F)cc2)c2ccc(F)cc2)CC1` (stereo not drawn) [Compound 7, l-(2-acetoxy-3-phenylamino-propyl)-4-[4,4-bis(4-fluorophenyl)butyl]piperazine.2C4H4O4] showed an IC50 of 41.2 nM. For `COC(CNc1ccccc1)CN1CCN(CCCC(c2ccc(F)cc2)c2ccc(F)cc2)CC1` (stereo not shown) [Compound 8, 1-[4,4-bis(4-fluorophenyl)-butyl]-4-(2-methoxy-3-phenylaminopropyl)piperazine.2HCl], the IC50 was 23.7 nM. With `OC(CNc1ccc(F)cc1)CN1CCN(CCCC(c2ccc(F)cc2)c2ccc(F)cc2)CC1` (stereo not shown) [Compound 9, 1-[4,4-bis(4-fluorophenyl)-butyl]-4-[3-(4-fluorophenylamino)-2-hydroxypropyl]-piperazine.2HCl] the IC50 was 46.8 nM. Compound `COc1cc(NCC(O)CN2CCN(CCCC(c3ccc(F)cc3)c3ccc(F)cc3)CC2)cc(OC)c1OC` (stereo not shown) [Compound 11, 1-[4,4-bis(4-fluorophenyl)-butyl]-4-[2-hydroxy-3-(3,4,5-trimethoxyphenylamino)-propyl]piperazine.2C4H4O4] has an IC50 of 197 nM. Compound `COc1ccc(NCC(O)CN2CCN(CCCC(c3ccc(F)cc3)c3ccc(F)cc3)CC2)cc1` (stereo not shown) [Compound 13, 1-[4,4-bis(4-fluorophenyl)-butyl]-4-[2-hydroxy-3-(4-methoxyphenylamino)propyl]-piperazine.2HCl] has an IC50 of 105 nM. In the case of `OC(CNc1ccncc1)CN1CCN(CCCC(c2ccc(F)cc2)c2ccc(F)cc2)CC1` (stereo not shown) [Compound 17, 1-[4,4-bis(4-fluorophenyl)-butyl)-4-[2-hydroxy-3-(4-pyridylamino)propyl]-piperazine.2C4H4O4], the IC50 is reported as 45 nM. Work on `OC(CNc1ccccc1)CN1CCN(CCC(c2ccc(F)cc2)c2ccc(F)cc2)CC1` (stereo not shown) [Compound 18, 1-[3,3-bis(4-fluorophenyl)-propyl]-4-[2-hydroxy-3-phenylaminopropyl)piperazine] yielded an IC50 of 15 nM. `OC(CNc1ccccc1)CN1CCN(CC(c2ccccc2)c2ccccc2)CC1` (stereo not shown) [Compound 19, 1-[2,2-diphenylethyl)-4-(2-hydroxy-3-phenylamino-propyl)piperazine.2HCl] was tested, and the IC50 was 72.2 nM. `O=[N+]([O-])c1ccc(NCC(O)CN2CCN(CCCC(c3ccc(F)cc3)c3ccc(F)cc3)CC2)cc1` (stereo not shown) [Compound 20, 1-[4,4-bis(4-fluorophenyl)butyl]-4-[2-hydroxy-3-(4-nitrophenylamino)propyl]-piperazine.2HCl] showed an IC50 of 55.8 nM. For `OC(CNc1ccccc1)CN1CCN(CCCCC(c2ccc(F)cc2)c2ccc(F)cc2)CC1` (stereo not shown) [Compound 21, 1-[5,5-bis(4-flurophenyl)-pentyl]-4-(2-hydroxy-3-phenylaminopropyl)piperazine.2HCl], the IC50 was 41.2 nM. With `CC(C)(C)c1cc(NCC(O)CN2CCN(CCCC(c3ccc(F)cc3)c3ccc(F)cc3)CC2)cc(C(C)(C)C)c1O` (stereo not shown) [Compound 22, 1-[4,4-bis(4-flurophenyl)-butyl]-4-[3-(3,5-di-tert-butyl-4-hydroxyphenylamino)-2-hydroxypropyl]piperazine..3C4H4O4] the IC50 was 306 nM. With `Nc1ccc(NCC(O)CN2CCN(CCCC(c3ccc(F)cc3)c3ccc(F)cc3)CC2)cc1` (stereo not shown) [Compound 23, 1-[3-(4-aminophenylamino)-2-hydroxypropyl]-4-[4,4-bis(4-fluorophenyl)butyl]-piperazine.3C4H4O4] the IC50 was 534 nM. Work on `Oc1ccc(NCC(O)CN2CCN(CCCC(c3ccc(F)cc3)c3ccc(F)cc3)CC2)cc1` (stereo not shown) [Compound 25, 1-[4,4-bis(4-flurophenyl)-butyl]-4-[2-hydroxy-3-(4-hydroxyphenylamino)propyl]-piperazine.2C4H4O4] yielded an IC50 of 23.7 nM. Work on `COC(=O)[C@H]1[C@@H](c2ccccc2)C[C@@H]2CC[C@H]1N2C` [WIN35,065-2, reference compound] yielded an IC50 of 118 nM.

These compounds were tested against T2, narcotic receptors (cocaine derivative [^3 H]WIN35,428 binding, striatum) (Rattus norvegicus, UniProt P23977) (assay: Ex vivo binding inhibition assay ([^3 H]WIN35,428, striatum after intraperitoneal administration)). Details: 30 mg/kg intraperitoneally, 30 minutes after administration, [^3 H]WIN35,428 0.5 nM; control (saline) 0%.
T2 construct: from tissue; host or cells: striatum of male Wistar rats, crude membranes
T2 sequence (P23977 whole entry): as above
Assay type: in vivo, male Wistar rats
Description: Ex vivo binding inhibition assay
as §1, with “To each male” for “Male”, “Wistar rat, 30 mg/kg of compound 15 was intraperitoneally administered. Thirty minutes after administration,” for “Wistar”, “(20,000” for “(38,700”, “20-fold” for “40-fold”
as §2, with “Control accounts for the sole use of a saline solution administered to rats intraperitoneally. […]” for “Fifty(50)% inhibition concentrations were calculated using Hill plotting.”
`OC(CNc1ccccc1)CN1CCN(CCCC(c2ccc(F)cc2)c2ccc(F)cc2)CC1` (single isomer, unassigned) [Compound 15, (--)-1-[4,4-bis(4-fluorophenyl)butyl]-4-(2-hydroxy-3-phenylaminopropyl)-piperazine.2HCl] showed a binding inhibitory ratio of 86.1%.
